A short description of data set [1]: Percent of radiolabel found in 24 hr urine samples after intravenous administration. In kind it is ADME.
Data set [2] concerns Rattus norvegicus. Briefly: Percent radioactivity in excreta of rats 24 hr following intraduodenal administration of the compound in urine. The data set is classed as ADME, organism-based. As to conditions: in vivo, other.
Data set [3] is described as follows: Percent of compound found in 24 hr urine samples after intraduodenal administration. In kind it is ADME. The conditions noted are these: read-out: Activity.
For data set [4], the system named is Rattus norvegicus. Briefly: Percent radioactivity in excreta of rats 24 hr following intraduodenal administration of the compound in feces. As to conditions: in vivo, other. The data set is classed as ADME, organism-based.
A short description of data set [5]: Percent of compound found in 24 hr urine samples after, intravenous administration. In kind it is ADME. As to conditions: read-out: Activity.
The nature of data set [6]: Percent of [3H]- histidine found in 24 hr urine samples after intravenous administration. In kind it is ADME.
Another data set concerns the target T1, Renin (Homo sapiens, UniProt P00797).
T1 sequence (P00797 whole entry): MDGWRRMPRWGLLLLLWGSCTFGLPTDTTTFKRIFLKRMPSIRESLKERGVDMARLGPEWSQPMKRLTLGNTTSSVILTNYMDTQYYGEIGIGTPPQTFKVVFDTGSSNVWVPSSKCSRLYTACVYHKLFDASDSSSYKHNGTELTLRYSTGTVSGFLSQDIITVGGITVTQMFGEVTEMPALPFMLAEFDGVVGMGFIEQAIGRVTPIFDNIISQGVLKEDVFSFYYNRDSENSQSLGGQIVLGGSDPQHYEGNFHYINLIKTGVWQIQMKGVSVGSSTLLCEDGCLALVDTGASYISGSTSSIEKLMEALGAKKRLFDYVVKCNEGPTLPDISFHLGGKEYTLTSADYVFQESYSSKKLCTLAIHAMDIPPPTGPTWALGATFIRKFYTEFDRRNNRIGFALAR
Briefly: Evaluated in vitro for inhibitory potency against renin.

The subject of data set [7] is Rattus norvegicus. The data set is described as follows: Percent radioactivity in excreta of rats 24 hr following intravenous administration in urine. In kind it is ADME, organism-based. As to conditions: in vivo.
Data set [8] has as its system Monkey. Briefly: Inhibition of Plasma renin activity was observed in male cynomolgus monkey at dose of 1.0 mg/kg. In kind it is functional, Cercopithecidae.
Data set [9] relates to Monkey. The data set is described as follows: Mean blood pressure was measured in salt depleted male cynomolgus monkey at dose of 1.0 mg/kg intravenously. In kind it is functional, Cercopithecidae. As to conditions: route intravenous.
Data set [10] concerns Monkey. The data set is described as follows: Inhibition of Plasma renin activity was observed in male cynomolgus monkey at dose of 10 mg/kg. In kind it is functional, Cercopithecidae.
In data set [11] the test system is Monkey. Briefly: Heart rate determined at dosage of 10 mg/kg in male cynomolgus monkey. In kind it is functional, Cercopithecidae.
Data set [12] deals with Monkey. Briefly: Mean blood pressure was measured in salt depleted male cynomolgus monkey at dose of 10 mg/kg intravenously. The data set is classed as functional, Cercopithecidae. As to conditions: route intravenous.
Data set [13] can be described thus: Percent of [3H]- histidine found in 24 hr urine samples after intraduodenal administration. The data set is classed as ADME. As to conditions: other.
The target of another data set is T2, Cathepsin D (Bos taurus) (UniProt P80209).
T2 sequence (whole entry): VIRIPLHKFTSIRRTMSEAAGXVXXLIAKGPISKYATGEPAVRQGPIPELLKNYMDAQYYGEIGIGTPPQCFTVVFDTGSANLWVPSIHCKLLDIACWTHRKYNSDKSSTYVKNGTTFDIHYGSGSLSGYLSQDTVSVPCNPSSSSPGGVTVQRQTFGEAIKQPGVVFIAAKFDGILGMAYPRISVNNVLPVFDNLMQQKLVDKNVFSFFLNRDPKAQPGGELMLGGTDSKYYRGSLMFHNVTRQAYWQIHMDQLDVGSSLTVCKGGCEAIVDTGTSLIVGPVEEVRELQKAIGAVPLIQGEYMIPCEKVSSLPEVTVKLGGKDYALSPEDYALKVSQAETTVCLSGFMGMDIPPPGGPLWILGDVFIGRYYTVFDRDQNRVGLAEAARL
Briefly: Evaluated for the percentage of inhibition of bovine cathepsin D at E-5M concentration.

A short description of data set [14]: Percent of radiolabel found in 24 hr urine samples after intraduodenal administration. In kind it is ADME. The conditions noted are these: other.
Data set [15] has as its system Rattus norvegicus. The data set is described as follows: Percent radioactivity in excreta of rats 24 h following intravenous administration in feces. In kind it is ADME, organism-based. As to conditions: in vivo.
In the next data set the target is Pepsin A (Sus scrofa) (UniProt P00791). The data set is described as follows: Evaluated for the percentage of inhibition of porcine pepsin at E-5M concentration.
Data set [16] concerns Monkey. Briefly: Heart rate determined at dosage of 1.0 mg/kg in male cynomolgus monkey. The data set is classed as functional, Cercopithecidae.

Experimental findings from ChEMBL document CHEMBL1123652, “Optimization and in vivo evaluations of a series of small, potent, and specific renin inhibitors containing a novel Leu-Val replacement” (J Med Chem, 1987) are described below.

Sequence of Pepsin A (Sus scrofa) (P00791 60-385 limits assumed): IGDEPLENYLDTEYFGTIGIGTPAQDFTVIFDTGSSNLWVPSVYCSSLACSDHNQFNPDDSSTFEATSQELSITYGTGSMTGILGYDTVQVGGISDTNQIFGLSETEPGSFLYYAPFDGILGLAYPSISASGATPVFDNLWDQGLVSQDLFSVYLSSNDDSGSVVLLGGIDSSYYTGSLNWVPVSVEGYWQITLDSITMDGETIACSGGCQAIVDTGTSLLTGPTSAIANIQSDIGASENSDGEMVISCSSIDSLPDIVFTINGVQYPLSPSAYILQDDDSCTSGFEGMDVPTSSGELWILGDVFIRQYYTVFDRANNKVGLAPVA

For the compound `CC(C)(C)OC(=O)N[C@@H](Cc1ccccc1)C(=O)N[C@@H](Cc1c[nH]cn1)C(=O)N[C@@H](CC1CCCCC1)[C@@H](O)CS(=O)(=O)C1CCCCC1`, the Activity in data set [1] amounted to 5%; in the data set on Rattus norvegicus [2], 0.9%; in the data set with Rattus norvegicus [4], 26.6%; in data set [6], 30%; with Rattus norvegicus [7], 5%; with Monkey [8], 35.3 ng/mL/h. Besides, the Activity was determined as 107.7 ng/mL/h in the data set on Monkey [10], 70% in [13], 1% in data set [14] and 34.5% with Rattus norvegicus [15]. The figures for the dose excreted at 24 h in data set [3] and in [5] were 30% and 70%, respectively. At Renin, the half-maximal inhibitory concentration (IC50) (commonly the concentration that gives 50% inhibition) was 2.5 nM. Besides, the Mean blood pressure with Monkey [9] is listed as 68 mmHg; in the data set on Monkey [12], 73 mmHg. Also, the Heart rate is recorded as 197 beats min-1 with Monkey [11] and 140 beats min-1 in the data set on Monkey [16]. In addition, the inhibition against Cathepsin D (Bos taurus) and against Pepsin A (Sus scrofa) was 0% throughout.
